# Columns and labels:
# Assay in all cases: relative viability (nuclei count vs DMSO), 5 days (fraction); higher = more cells survive
# [1] = tested on: NCI-H1703
# In short: (§1)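 Dosing by pin tool came one day after lung cancer cell lines were seeded in 1536-well plates, using either one drug or a fixed anchor-drug dose plus five library-drug doses (not always all listed) in √10 steps. After 5 days, nuclei were counted on 4× images. Relative viability is treated-well nuclei count divided by vehicle-well nuclei count, and values are medians of duplicate plates.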
# [2] = tested on: Calu-6
# In short: as §1
# [3] = tested on: IA-LM
# In short: as §1
# [4] = tested on: NCI-H1299
# In short: as §1
# [5] = tested on: A549
# In short: as §1
# [6] = tested on: EBC-1
# In short: as §1
# [7] = tested on: NCI-H1563
# In short: as §1
# [8] = tested on: SW 900
# In short: as §1
# [9] = tested on: NCI-H2342
# In short: as §1
# [10] = tested on: NCI-H522
# In short: as §1
# [11] = tested on: NCI-H1648
# In short: as §1
smiles,measurement,setting,value
O=C(O)CCCCC(CCSCc1ccccc1)SCc1ccccc1 (stereo unspecified) [CPI-613] + C[C@]1(O)C[C@@H](c2nc(-c3ccc4ccc(-c5ccccc5)nc4c3)c3c(N)nccn32)C1 [Linsitinib] (partner 1 µM),relative viability,[1]; first compound 5 µM,1.21
same,relative viability,[1]; first compound 15.81 µM,0.809
same,relative viability,[1]; first compound 50 µM,0.568
same,relative viability,[1]; first compound 158.11 µM,0.17
same,relative viability,[1]; first compound 500 µM,0.439
same,relative viability,[2]; first compound 5 µM,1.02
same,relative viability,[2]; first compound 50 µM,0.726
same,relative viability,[2]; first compound 158.11 µM,0.905
same,relative viability,[2]; first compound 500 µM,0.658
same,relative viability,[3]; first compound 5 µM,0.703
same,relative viability,[3]; first compound 15.81 µM,0.364
same,relative viability,[3]; first compound 50 µM,0.432
same,relative viability,[3]; first compound 158.11 µM,0.527
same,relative viability,[3]; first compound 500 µM,0.358
same,relative viability,[4]; first compound 5 µM,0.933
same,relative viability,[4]; first compound 15.81 µM,0.894
same,relative viability,[4]; first compound 50 µM,0.869
same,relative viability,[4]; first compound 158.11 µM,1
same,relative viability,[4]; first compound 500 µM,0.957
same,relative viability,[5]; first compound 5 µM,0.529
same,relative viability,[5]; first compound 15.81 µM,0.521
same,relative viability,[5]; first compound 50 µM,0.588
same,relative viability,[5]; first compound 158.11 µM,0.722
same,relative viability,[5]; first compound 500 µM,0.597
same,relative viability,[6]; first compound 5 µM,0.874
same,relative viability,[6]; first compound 15.81 µM,0.695
same,relative viability,[6]; first compound 50 µM,0.593
same,relative viability,[6]; first compound 158.11 µM,0.786
same,relative viability,[6]; first compound 500 µM,0.608
same,relative viability,[7]; first compound 5 µM,1.26
same,relative viability,[7]; first compound 15.81 µM,1.21
same,relative viability,[7]; first compound 50 µM,1.23
same,relative viability,[7]; first compound 158.11 µM,0.454
same,relative viability,[7]; first compound 500 µM,0.208
O=C(O)CCCCC(CCSCc1ccccc1)SCc1ccccc1 (stereo unspecified) [CPI-613] + Cc1nc(NC(=O)N2CCC[C@H]2C(N)=O)sc1-c1ccnc(C(C)(C)C(F)(F)F)c1 [Alpelisib] (partner 2 µM),relative viability,[1]; first compound 5 µM,0.381
same,relative viability,[1]; first compound 15.81 µM,0.484
same,relative viability,[1]; first compound 50 µM,0.275
same,relative viability,[1]; first compound 158.11 µM,0.208
same,relative viability,[1]; first compound 500 µM,0.0611
same,relative viability,[2]; first compound 5 µM,0.997
same,relative viability,[2]; first compound 15.81 µM,0.876
same,relative viability,[2]; first compound 50 µM,0.891
same,relative viability,[2]; first compound 158.11 µM,0.174
same,relative viability,[2]; first compound 500 µM,0.0521
same,relative viability,[3]; first compound 5 µM,0.614
same,relative viability,[3]; first compound 15.81 µM,0.679
same,relative viability,[3]; first compound 50 µM,0.644
same,relative viability,[3]; first compound 158.11 µM,0.399
same,relative viability,[3]; first compound 500 µM,0.0122
same,relative viability,[4]; first compound 5 µM,1.02
same,relative viability,[4]; first compound 15.81 µM,1.04
same,relative viability,[4]; first compound 50 µM,1.04
same,relative viability,[4]; first compound 158.11 µM,1.09
same,relative viability,[4]; first compound 500 µM,1.08
same,relative viability,[5]; first compound 5 µM,0.859
same,relative viability,[5]; first compound 15.81 µM,0.675
same,relative viability,[5]; first compound 50 µM,0.69
same,relative viability,[5]; first compound 158.11 µM,0.384
same,relative viability,[5]; first compound 500 µM,0.0243
same,relative viability,[6]; first compound 5 µM,0.823
same,relative viability,[6]; first compound 15.81 µM,0.651
same,relative viability,[6]; first compound 50 µM,0.678
same,relative viability,[6]; first compound 158.11 µM,0.199
same,relative viability,[6]; first compound 500 µM,0.0384
same,relative viability,[7]; first compound 5 µM,0.958
same,relative viability,[7]; first compound 15.81 µM,0.938
same,relative viability,[7]; first compound 50 µM,0.939
same,relative viability,[7]; first compound 158.11 µM,0.796
same,relative viability,[7]; first compound 500 µM,0.113
O=C(O)CCCCC(CCSCc1ccccc1)SCc1ccccc1 (stereo unspecified) [CPI-613] + Nc1nc2[nH]cc(CCc3ccc(C(=O)N[C@@H](CCC(=O)O)C(=O)O)cc3)c2c(=O)[nH]1 [Pemetrexed] (partner 0.2 µM),relative viability,[8]; first compound 5 µM,0.451
same,relative viability,[8]; first compound 50 µM,0.47
same,relative viability,[8]; first compound 158.11 µM,0.372
same,relative viability,[8]; first compound 500 µM,0.0088
same,relative viability,[9]; first compound 5 µM,0.743
same,relative viability,[9]; first compound 15.81 µM,0.761
same,relative viability,[9]; first compound 50 µM,0.804
same,relative viability,[9]; first compound 158.11 µM,0.744
same,relative viability,[9]; first compound 500 µM,0.785
same,relative viability,[10]; first compound 5 µM,1.04
same,relative viability,[10]; first compound 15.81 µM,1.06
same,relative viability,[10]; first compound 50 µM,1.3
same,relative viability,[10]; first compound 158.11 µM,0.857
same,relative viability,[10]; first compound 500 µM,0.473
same,relative viability,[7]; first compound 5 µM,0.732
same,relative viability,[7]; first compound 15.81 µM,0.713
same,relative viability,[7]; first compound 50 µM,0.727
same,relative viability,[7]; first compound 158.11 µM,0.631
same,relative viability,[7]; first compound 500 µM,0.394
same,relative viability,[11]; first compound 5 µM,0.639
same,relative viability,[11]; first compound 15.81 µM,0.623
same,relative viability,[11]; first compound 50 µM,0.823
same,relative viability,[11]; first compound 158.11 µM,0.527
same,relative viability,[11]; first compound 500 µM,0.139
O=c1[nH]c2ccccc2n1C1CCN(CCCC(c2ccc(F)cc2)c2ccc(F)cc2)CC1 [Pimozide] + CC(=O)Nc1cccc(-n2c(=O)n(C3CC3)c(=O)c3c(Nc4ccc(I)cc4F)n(C)c(=O)c(C)c32)c1 [Trametinib] (partner 0.02 µM),relative viability,[8]; first compound 0.08 µM,0.743
same,relative viability,[8]; first compound 0.253 µM,0.801
same,relative viability,[8]; first compound 2.53 µM,0.72
same,relative viability,[8]; first compound 8 µM,0.802
same,relative viability,[9]; first compound 0.08 µM,0.661
same,relative viability,[9]; first compound 0.253 µM,0.872
same,relative viability,[9]; first compound 0.8 µM,0.676
same,relative viability,[9]; first compound 2.53 µM,0.826
same,relative viability,[9]; first compound 8 µM,0.759
same,relative viability,[10]; first compound 0.08 µM,0.738
same,relative viability,[10]; first compound 0.253 µM,0.751
same,relative viability,[10]; first compound 0.8 µM,0.733
same,relative viability,[10]; first compound 2.53 µM,0.746
same,relative viability,[10]; first compound 8 µM,0.811
same,relative viability,[11]; first compound 0.08 µM,0.423
same,relative viability,[11]; first compound 0.8 µM,0.34
same,relative viability,[11]; first compound 2.53 µM,0.373
same,relative viability,[11]; first compound 8 µM,0.416

# Source: the supplement of paper PMC10307832
